Reference: publication PMC11699025 (Natural Products and Bioprospecting, 2025)
Several values for one entry are separate records, joined by “and”; a condition that tells them apart may be missing. Identical values can stand only once.

Experiments:
Assay type in all cases: binding
SARS-CoV-2 PLpro Y268A = SARS-CoV-2 PLpro Y268A (Severe acute respiratory syndrome coronavirus 2, UniProt P0DTD1, Y1831A)
SARS-CoV-2 PLpro L253A = SARS-CoV-2 PLpro L253A (Severe acute respiratory syndrome coronavirus 2, UniProt P0DTD1, L1816A)
SARS-CoV-2 PLpro E252A = SARS-CoV-2 PLpro E252A (Severe acute respiratory syndrome coronavirus 2, UniProt P0DTD1, E1815A)
SARS-CoV-2 Mpro N142A = SARS-CoV-2 Mpro N142A (Severe acute respiratory syndrome coronavirus 2, UniProt P0DTD1, N3405A)
SARS-CoV-2 PLpro F258A = SARS-CoV-2 PLpro F258A (Severe acute respiratory syndrome coronavirus 2, UniProt P0DTD1, F1821A)
SARS-CoV-2 PLpro T257A = SARS-CoV-2 PLpro T257A (Severe acute respiratory syndrome coronavirus 2, UniProt P0DTD1, T1820A)
SARS-CoV-2 PLpro Y264A = SARS-CoV-2 PLpro Y264A (Severe acute respiratory syndrome coronavirus 2, UniProt P0DTD1, Y1827A)
SARS-CoV-2 PLpro V303A = SARS-CoV-2 PLpro V303A (Severe acute respiratory syndrome coronavirus 2, UniProt P0DTD1, V1866A)
SARS-CoV-2 PLpro D164A = SARS-CoV-2 PLpro D164A (Severe acute respiratory syndrome coronavirus 2, UniProt P0DTD1, D1727A)
SARS-CoV-2 Mpro F291A = SARS-CoV-2 Mpro F291A (Severe acute respiratory syndrome coronavirus 2, UniProt P0DTD1, F3554A)
SARS-CoV-2 Mpro E288A = SARS-CoV-2 Mpro E288A (Severe acute respiratory syndrome coronavirus 2, UniProt P0DTD1, E3551A)
SARS-CoV-2 Mpro F3A = SARS-CoV-2 Mpro F3A (Severe acute respiratory syndrome coronavirus 2, UniProt P0DTD1, F3266A)
SARS-CoV-2 Mpro K5A = SARS-CoV-2 Mpro K5A (Severe acute respiratory syndrome coronavirus 2, UniProt P0DTD1, K3268A)
SARS-CoV-2 PLpro R166A = SARS-CoV-2 PLpro R166A (Severe acute respiratory syndrome coronavirus 2, UniProt P0DTD1, R1729A)
SARS-CoV-2 Mpro Y126A = SARS-CoV-2 Mpro Y126A (Severe acute respiratory syndrome coronavirus 2, UniProt P0DTD1, Y3389A)
SARS-CoV-2 PLpro Y273A = SARS-CoV-2 PLpro Y273A (Severe acute respiratory syndrome coronavirus 2, UniProt P0DTD1, Y1836A)
SARS-CoV-2 PLpro Y251A = SARS-CoV-2 PLpro Y251A (Severe acute respiratory syndrome coronavirus 2, UniProt P0DTD1, Y1814A)
SARS-CoV-2 Mpro R4A = SARS-CoV-2 Mpro R4A (Severe acute respiratory syndrome coronavirus 2, UniProt P0DTD1, R3267A)
SARS-CoV-2 PLpro K254A = SARS-CoV-2 PLpro K254A (Severe acute respiratory syndrome coronavirus 2, UniProt P0DTD1, K1817A)

Compound: Cc1cc(O)c(O)c(Oc2cc(C)cc(O)c2Oc2cc(C)cc(O)c2O)c1 [Sydowiol B, sydowiol B]
- Tm value (SARS-CoV-2 PLpro Y268A): 50.46 ± 0.65 (3.82) ℃
- △Tm (SARS-CoV-2 PLpro Y268A): 50.46 ± 0.65 (3.82) ℃
- Tm value (SARS-CoV-2 PLpro L253A): 50.09 ± 0.49 °C
- Tm value (SARS-CoV-2 PLpro E252A): 44.10 ± 0.20 (0.75) ℃ and 45.88 ± 0.48 (2.53) ℃ and 47.86 ± 0.13 (4.51) ℃
- △Tm (SARS-CoV-2 PLpro E252A): 44.10 ± 0.20 (0.75) ℃ and 45.88 ± 0.48 (2.53) ℃ and 47.86 ± 0.13 (4.51) ℃
- Tm value (SARS-CoV-2 Mpro N142A): 58.18 ± 0.03 (5.56) ℃ and 57.22 ± 0.07 (4.60) ℃ and 56.43 ± 0.24 (3.81) ℃
- △Tm (SARS-CoV-2 Mpro N142A): 58.18 ± 0.03 (5.56) ℃ and 57.22 ± 0.07 (4.60) ℃ and 56.43 ± 0.24 (3.81) ℃
- Tm value (SARS-CoV-2 PLpro F258A): 47.68 ± 0.06 °C
- Tm value (SARS-CoV-2 PLpro T257A): 47.76 ± 0.27 (4.16) ℃
- △Tm (SARS-CoV-2 PLpro T257A): 47.76 ± 0.27 (4.16) ℃
- Tm value (SARS-CoV-2 PLpro Y264A): 46.21 ± 0.86 (0.01) ℃ and 45.93 ± 0.03 (-0.27) ℃ and 46.48 ± 0.43 (0.28) ℃
- △Tm (SARS-CoV-2 PLpro Y264A): 46.21 ± 0.86 (0.01) ℃ and 45.93 ± 0.03 (-0.27) ℃ and 46.48 ± 0.43 (0.28) ℃
- Tm value (SARS-CoV-2 PLpro V303A): 52.24 ± 0.13 (5.12) ℃
- △Tm (SARS-CoV-2 PLpro V303A): 52.24 ± 0.13 (5.12) ℃
- Tm value (SARS-CoV-2 PLpro D164A): 44.58 ± 0.62 (2.03) ℃ and 45.84 ± 0.11 (3.29) ℃ and 46.83 ± 0.21 (4.28) ℃
- △Tm (SARS-CoV-2 PLpro D164A): 44.58 ± 0.62 (2.03) ℃ and 45.84 ± 0.11 (3.29) ℃ and 46.83 ± 0.21 (4.28) ℃
- Tm value (SARS-CoV-2 Mpro F291A): 61.29 ± 0.01 (-0.08) ℃ and 61.37 ± 0.01 (0.00) ℃ and 61.44 ± 0.01 (0.07) ℃
- △Tm (SARS-CoV-2 Mpro F291A): 61.29 ± 0.01 (-0.08) ℃ and 61.37 ± 0.01 (0.00) ℃ and 61.44 ± 0.01 (0.07) ℃
- Tm value (SARS-CoV-2 Mpro E288A): 54.03 ± 0.10 (1.14) ℃ and 53.21 ± 0.11 (0.32) ℃
- △Tm (SARS-CoV-2 Mpro E288A): 54.03 ± 0.10 (1.14) ℃ and 53.21 ± 0.11 (0.32) ℃
- Tm value (SARS-CoV-2 Mpro F3A): 53.05 ± 0.12 (1.05) ℃ and 52.84 ± 0.19 (0.84) ℃ and 53.05 ± 0.03 (1.05) ℃
- △Tm (SARS-CoV-2 Mpro F3A): 53.05 ± 0.12 (1.05) ℃ and 52.84 ± 0.19 (0.84) ℃ and 53.05 ± 0.03 (1.05) ℃
- Tm value (SARS-CoV-2 Mpro K5A): 47.98 ± 0.07 (0.63) ℃
- △Tm (SARS-CoV-2 Mpro K5A): 47.98 ± 0.07 (0.63) ℃
- Tm value (SARS-CoV-2 PLpro R166A): 50.86 ± 0.55 (3.18) ℃
- △Tm (SARS-CoV-2 PLpro R166A): 50.86 ± 0.55 (3.18) ℃
- Tm value (SARS-CoV-2 Mpro Y126A): 47.88 ± 0.22 (1.58) ℃
- △Tm (SARS-CoV-2 Mpro Y126A): 47.88 ± 0.22 (1.58) ℃
- Tm value (SARS-CoV-2 PLpro Y273A): 51.09 ± 0.23 (-0.85) ℃ and 50.59 ± 0.10 (-1.35) ℃ and 51.21 ± 0.00 (-0.73) ℃
- △Tm (SARS-CoV-2 PLpro Y273A): 51.09 ± 0.23 (-0.85) ℃ and 50.59 ± 0.10 (-1.35) ℃ and 51.21 ± 0.00 (-0.73) ℃
- Tm value (SARS-CoV-2 PLpro Y251A): 47.78 ± 0.39 (2.41) ℃ and 46.46 ± 0.07 (1.09) ℃
- △Tm (SARS-CoV-2 PLpro Y251A): 47.78 ± 0.39 (2.41) ℃ and 46.46 ± 0.07 (1.09) ℃
- Tm value (SARS-CoV-2 Mpro R4A): 54.54 ± 0.06 (0.84) ℃ and 54.25 ± 0.27 (0.55) ℃ and 54.16 ± 0.03 (0.46) ℃
- △Tm (SARS-CoV-2 Mpro R4A): 54.54 ± 0.06 (0.84) ℃ and 54.25 ± 0.27 (0.55) ℃ and 54.16 ± 0.03 (0.46) ℃
- Tm value (SARS-CoV-2 PLpro K254A): 46.61 ± 0.16 (3.31) ℃ and 46.23 ± 0.29 (2.93) ℃
- △Tm (SARS-CoV-2 PLpro K254A): 46.61 ± 0.16 (3.31) ℃ and 46.23 ± 0.29 (2.93) ℃
